Measured values: publication PMC11711049 (Cancer Science, 2024)

Test system: patients with advanced gastric cancer and cholangiocarcinoma
Experiment: Safety assessments
Type: in vivo, human
Conditions: 140 mg once daily

CNC(=O)n1ccc2cc(Oc3ccnc(NC(=O)c4ccc(C5CCN(CCO)CC5)cc4)c3)c(OCCOC)cc21 [Tasurgratinib]
SAEs considered related to the study drug: none and No treatment‐related SAEs
dose reductions attributed to AST increased: 1 n
dose reductions attributed to PPE syndrome: 2 n
dose reductions attributed to decreased appetite: 1 n
dose reductions attributed to paronychia: 2 n
dose reductions attributed to stomatitis: 1 n
drug‐related deaths: no drug‐related deaths
severity of all hyperphosphatemia events: grade 1 or 2
ALT increased, TEAEs All grades (N = 16): 3 (18.8) n (%)
ALT increased, TEAEs Grade ≥3 (N = 16): 1 (6.3) n (%)
ALT increased, TRAEs All grades (N = 16): 2 (12.5) n (%)
ALT increased, TRAEs Grade ≥3 (N = 16): 0 (0.0) n (%)
AST increased, TEAEs All grades (N = 16): 4 (25.0) n (%)
AST increased, TEAEs Grade ≥3 (N = 16): 2 (12.5) n (%)
AST increased, TRAEs All grades (N = 16): 3 (18.8) n (%)
AST increased, TRAEs Grade ≥3 (N = 16): 1 (6.3) n (%)
Abdominal distension, TEAEs All grades (N = 16): 4 (25.0) n (%)
Abdominal distension, TEAEs Grade ≥3 (N = 16): 1 (6.3) n (%)
Abdominal distension, TRAEs All grades (N = 16): 0 (0.0) n (%)
Abdominal distension, TRAEs Grade ≥3 (N = 16): 0 (0.0) n (%)
Abdominal pain, TEAEs All grades (N = 16): 2 (12.5) n (%)
Abdominal pain, TEAEs Grade ≥3 (N = 16): 0 (0.0) n (%)
Abdominal pain, TRAEs All grades (N = 16): 0 (0.0) n (%)
Abdominal pain, TRAEs Grade ≥3 (N = 16): 0 (0.0) n (%)
All AEs, TEAEs All grades (N = 16): 16 (100.0) n (%)
All AEs, TEAEs Grade ≥3 (N = 16): 11 (68.8) n (%)
All AEs, TRAEs All grades (N = 16): 16 (100.0) n (%)
All AEs, TRAEs Grade ≥3 (N = 16): 2 (12.5) n (%)
Anemia, TEAEs All grades (N = 16): 4 (25.0) n (%)
Anemia, TEAEs Grade ≥3 (N = 16): 2 (12.5) n (%)
Anemia, TRAEs All grades (N = 16): 1 (6.3) n (%)
Anemia, TRAEs Grade ≥3 (N = 16): 0 (0.0) n (%)
Blood alkaline phosphatase increased, TEAEs All grades (N = 16): 3 (18.8) n (%)
Blood alkaline phosphatase increased, TEAEs Grade ≥3 (N = 16): 2 (12.5) n (%)
Blood alkaline phosphatase increased, TRAEs All grades (N = 16): 1 (6.3) n (%)
Blood alkaline phosphatase increased, TRAEs Grade ≥3 (N = 16): 0 (0.0) n (%)
Blood creatinine increased, TEAEs All grades (N = 16): 5 (31.3) n (%)
Blood creatinine increased, TEAEs Grade ≥3 (N = 16): 0 (0.0) n (%)
Blood creatinine increased, TRAEs All grades (N = 16): 3 (18.8) n (%)
Blood creatinine increased, TRAEs Grade ≥3 (N = 16): 0 (0.0) n (%)
Cancer pain, TEAEs All grades (N = 16): 2 (12.5) n (%)
Cancer pain, TEAEs Grade ≥3 (N = 16): 0 (0.0) n (%)
Cancer pain, TRAEs All grades (N = 16): 0 (0.0) n (%)
Cancer pain, TRAEs Grade ≥3 (N = 16): 0 (0.0) n (%)
Constipation, TEAEs All grades (N = 16): 3 (18.8) n (%)
Constipation, TEAEs Grade ≥3 (N = 16): 0 (0.0) n (%)
Constipation, TRAEs All grades (N = 16): 1 (6.3) n (%)
Constipation, TRAEs Grade ≥3 (N = 16): 0 (0.0) n (%)
Decreased appetite, TEAEs All grades (N = 16): 7 (43.8) n (%)
Decreased appetite, TEAEs Grade ≥3 (N = 16): 2 (12.5) n (%)
Decreased appetite, TRAEs All grades (N = 16): 2 (12.5) n (%)
Decreased appetite, TRAEs Grade ≥3 (N = 16): 0 (0.0) n (%)
Diarrhea, TEAEs All grades (N = 16): 6 (37.5) n (%)
Diarrhea, TEAEs Grade ≥3 (N = 16): 1 (6.3) n (%)
Diarrhea, TRAEs All grades (N = 16): 4 (25.0) n (%)
Diarrhea, TRAEs Grade ≥3 (N = 16): 0 (0.0) n (%)
Dry eye, TEAEs All grades (N = 16): 2 (12.5) n (%)
Dry eye, TEAEs Grade ≥3 (N = 16): 0 (0.0) n (%)
Dry eye, TRAEs All grades (N = 16): 1 (6.3) n (%)
Dry eye, TRAEs Grade ≥3 (N = 16): 0 (0.0) n (%)
Dry mouth, TEAEs All grades (N = 16): 3 (18.8) n (%)
Dry mouth, TEAEs Grade ≥3 (N = 16): 0 (0.0) n (%)
Dry mouth, TRAEs All grades (N = 16): 3 (18.8) n (%)
Dry mouth, TRAEs Grade ≥3 (N = 16): 0 (0.0) n (%)
Dry skin, TEAEs All grades (N = 16): 3 (18.8) n (%)
Dry skin, TEAEs Grade ≥3 (N = 16): 0 (0.0) n (%)
Dry skin, TRAEs All grades (N = 16): 3 (18.8) n (%)
Dry skin, TRAEs Grade ≥3 (N = 16): 0 (0.0) n (%)
Dysgeusia, TEAEs All grades (N = 16): 6 (37.5) n (%)
Dysgeusia, TEAEs Grade ≥3 (N = 16): 0 (0.0) n (%)
Dysgeusia, TRAEs All grades (N = 16): 5 (31.3) n (%)
Dysgeusia, TRAEs Grade ≥3 (N = 16): 0 (0.0) n (%)
Epistaxis, TEAEs All grades (N = 16): 2 (12.5) n (%)
Epistaxis, TEAEs Grade ≥3 (N = 16): 0 (0.0) n (%)
Epistaxis, TRAEs All grades (N = 16): 1 (6.3) n (%)
Epistaxis, TRAEs Grade ≥3 (N = 16): 0 (0.0) n (%)
Headache, TEAEs All grades (N = 16): 2 (12.5) n (%)
Headache, TEAEs Grade ≥3 (N = 16): 1 (6.3) n (%)
Headache, TRAEs All grades (N = 16): 0 (0.0) n (%)
Headache, TRAEs Grade ≥3 (N = 16): 0 (0.0) n (%)
Hyperphosphatemia, TEAEs All grades (N = 16): 16 (100.0) n (%)
Hyperphosphatemia, TEAEs Grade ≥3 (N = 16): 0 (0.0) n (%)
Hyperphosphatemia, TRAEs All grades (N = 16): 16 (100.0) n (%)
Hyperphosphatemia, TRAEs Grade ≥3 (N = 16): 0 (0.0) n (%)
Hypoalbuminemia, TEAEs All grades (N = 16): 3 (18.8) n (%)
Hypoalbuminemia, TEAEs Grade ≥3 (N = 16): 1 (6.3) n (%)
Hypoalbuminemia, TRAEs All grades (N = 16): 0 (0.0) n (%)
Hypoalbuminemia, TRAEs Grade ≥3 (N = 16): 0 (0.0) n (%)
Insomnia, TEAEs All grades (N = 16): 2 (12.5) n (%)
Insomnia, TEAEs Grade ≥3 (N = 16): 0 (0.0) n (%)
Insomnia, TRAEs All grades (N = 16): 0 (0.0) n (%)
Insomnia, TRAEs Grade ≥3 (N = 16): 0 (0.0) n (%)
Lipase increased, TEAEs All grades (N = 16): 2 (12.5) n (%)
Lipase increased, TEAEs Grade ≥3 (N = 16): 2 (12.5) n (%)
Lipase increased, TRAEs All grades (N = 16): 1 (6.3) n (%)
Lipase increased, TRAEs Grade ≥3 (N = 16): 1 (6.3) n (%)
